Residue numbers refer to the chain shown, from its start.
What was measured:
[1] = Tmax in Sprague-Dawley rat plasma at 30 mg/kg, po measured after 24 hrs by LC-MS/MS analysis; assay type: ADME, organism-based; details: in vivo
[2] = target: Receptor-type tyrosine-protein phosphatase F (Homo sapiens, UniProt P10586); experiment: Inhibition of LAR(unknown origin)
[3] = target: Tyrosine-protein phosphatase non-receptor type 13 (Homo sapiens, UniProt Q12923); experiment: Inhibition of FAP-1(unknown origin)
[4] = target: RNA polymerase II subunit A C-terminal domain phosphatase SSU72 (Homo sapiens, UniProt Q9NP77); experiment: Inhibition of SSU72 (unknown origin)
[5] = AUC(0 to 12 hrs) in Sprague-Dawley rat plasma at 30 mg/kg, po measured after 24 hrs by LC-MS/MS analysis; assay type: ADME, organism-based; parameters: time 24 hrs, dose 30 mg/kg, route po; details: in vivo
[6] = target: Dual specificity protein phosphatase 3 (Homo sapiens, UniProt P51452); experiment: Inhibition of VHR (unknown origin)
[7] = target: Receptor-type tyrosine-protein phosphatase S (Homo sapiens, UniProt Q13332); experiment: Inhibition of PTPsigma (unknown origin)
CYP2D6 = CYP2D6 (Homo sapiens, UniProt P10635); experiment: Inhibition of human hepatic CYP2D6 using bufuralol HCL as substrate measured after 3 mins by LC-MS analysis relative to control; assay type: ADME, tissue-based; parameters: concentration or dose not given beside the values; details: human hepatic CYP2D6 (liver), probe bufuralol HCl
[8] = Half life in Sprague-Dawley rat plasma at 30 mg/kg, po measured after 24 hrs by LC-MS/MS analysis; assay type: ADME, organism-based; details: in vivo
[9] = AUC(0 to 12 hrs) in Sprague-Dawley rat plasma at 3 mg/kg, po measured after 24 hrs by LC-MS/MS analysis; assay type: ADME, organism-based; parameters: time 24 hrs, dose 3 mg/kg, route po; details: in vivo
[10] = Half life in CD-1 mouse plasma at 2 mg/kg, iv measured after 8 hrs by LC-MS/MS analysis; assay type: ADME, organism-based; details: mouse, in vivo, iv, 2 mg/kg, 8 h
[11] = target: Tyrosine-protein phosphatase non-receptor type 1 (Homo sapiens, UniProt P18031); experiment: Inhibition of PTP1B (unknown origin)
[12] = AUC(0 to 8 hrs) in CD-1 mouse plasma at 10 mg/kg, po measured after 8 hrs by LC-MS/MS analysis; assay type: ADME, organism-based; parameters: dose 10 mg/kg, time 8 hrs, route po; details: in vivo
[13] = Half life in Sprague-Dawley rat plasma at 3 mg/kg, po measured after 24 hrs by LC-MS/MS analysis; assay type: ADME, organism-based; details: in vivo
[14] = target: Tyrosine-protein phosphatase non-receptor type 11 (Homo sapiens, UniProt Q06124); experiment: Inhibition of SHP2 (unknown origin)
[15] = Half life in CD-1 mouse plasma at 10 mg/kg, po measured after 8 hrs by LC-MS/MS analysis; assay type: ADME, organism-based; details: in vivo
[16] = target: Receptor-type tyrosine-protein phosphatase epsilon (Homo sapiens, UniProt P23469); experiment: Inhibition of PTPepsilon (unknown origin)
[17] = Unbound Cmax in plasma of Sprague-Dawley rat at 3 mg/kg, po measured after 24 hrs by LC-MS/MS analysis; assay type: ADME, organism-based; details: in vivo
[18] = target: Tyrosine-protein phosphatase non-receptor type 22 (Homo sapiens, UniProt Q9Y2R2); experiment: Inhibition of LYP (unknown origin)
[19] = Plasma protein binding in mouse assessed as unbound fraction measured after 4.5 hrs by LC-MS/MS analysis; assay type: ADME, cell-free
[20] = target: Serine/threonine-protein phosphatase 5 (Homo sapiens, UniProt P53041); experiment: Inhibition of PP5 (unknown origin)
[21] = target: Tyrosine-protein phosphatase non-receptor type 12 (Homo sapiens, UniProt Q05209); experiment: Inhibition of PEST(unknown origin)
[22] = target: T1, Low molecular weight phosphotyrosine protein phosphatase (Rattus norvegicus, UniProt P41498); experiment: Inhibition of N-terminal His-tagged full length rat LMW-PTP expressed in Escherichia coli BL21(DE3)
T1 sequence (P41498 whole entry): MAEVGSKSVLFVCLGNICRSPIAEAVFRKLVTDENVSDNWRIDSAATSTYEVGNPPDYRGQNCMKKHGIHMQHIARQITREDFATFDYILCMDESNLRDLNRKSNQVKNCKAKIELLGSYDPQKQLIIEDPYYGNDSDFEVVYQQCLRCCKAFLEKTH

[23] = target: Dual specificity protein phosphatase CDC14A (Homo sapiens, UniProt Q9UNH5); experiment: Inhibition of CDC14A (unknown origin)
[24] = target: T2, Low molecular weight phosphotyrosine protein phosphatase (Mus musculus, UniProt Q9D358); experiment: Inhibition of N-terminal His-tagged full length mouse LMW-PTP expressed in Escherichia coli BL21(DE3) by […] analysis
T2 sequence (Q9D358 whole entry): T1 sequence (P41498 whole entry) with N35K, K65R, R80K, H158Y

[25] = target: Receptor-type tyrosine-protein phosphatase C (Homo sapiens, UniProt P08575); experiment: Inhibition of CD45 (unknown origin)
[26] = Metabolic stability in human hepatic microsome at 4 uM measured after 30 mins by LC-MS analysis; assay type: ADME; details: liver microsomes, read-out: Stability
[27] = target: Receptor-type tyrosine-protein phosphatase gamma (Homo sapiens, UniProt P23470); experiment: Inhibition of PTPgamma (unknown origin)
CYP2C9 = CYP2C9 (Homo sapiens, UniProt P11712); experiment: Inhibition of human hepatic CYP2C9 using diclofenac as substrate measured after 10 mins by LC-MS analysis relative to control; assay type: ADME, tissue-based; parameters: concentration or dose not given beside the values; details: human hepatic CYP2C9 (liver), probe diclofenac
[28] = target: Tyrosine-protein phosphatase non-receptor type 2 (Homo sapiens, UniProt P17706); experiment: Inhibition of TC-PTP (unknown origin)
[29] = target: T3, Low molecular weight phosphotyrosine protein phosphatase (Homo sapiens, UniProt P24666); experiment: Competitive inhibition of LMW-PTP (unknown origin) assessed as inhibition constant by Lineweaver-Burk plot analysis
T3 sequence (P24666 whole entry): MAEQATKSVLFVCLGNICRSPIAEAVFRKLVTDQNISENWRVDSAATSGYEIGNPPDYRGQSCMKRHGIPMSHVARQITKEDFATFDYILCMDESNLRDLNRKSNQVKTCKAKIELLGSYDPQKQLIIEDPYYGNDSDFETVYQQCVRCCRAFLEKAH

[30] = Cmax in CD-1 mouse plasma at 10 mg/kg, po measured after 8 hrs by LC-MS/MS analysis; assay type: ADME, organism-based; parameters: dose 10 mg/kg, time 8 hrs, route po; details: mouse, in vivo, 8 h
[31] = Metabolic stability in dog hepatic microsome at 4 uM measured after 30 mins by LC-MS analysis; assay type: ADME, Canis lupus familiaris; details: liver microsomes, read-out: Stability
[32] = target: Receptor-type tyrosine-protein phosphatase alpha (Homo sapiens, UniProt P18433); experiment: Inhibition of PTPalpha (unknown origin)
[33] = target: Dual specificity protein phosphatase 23 (Homo sapiens, UniProt Q9BVJ7); experiment: Inhibition of VHZ (unknown origin)
[34] = AUC(0 to 8 hrs) in CD-1 mouse plasma at 2 mg/kg, iv measured after 8 hrs by LC-MS/MS analysis; assay type: ADME, organism-based; parameters: dose 2 mg/kg, time 8 hrs, route iv; details: in vivo
[35] = target: Receptor-type tyrosine-protein phosphatase beta (Homo sapiens, UniProt P23467); experiment: Inhibition of PTPbeta (unknown origin)
[36] = target: Tyrosine-protein phosphatase non-receptor type 7 (Homo sapiens, UniProt P35236); experiment: Inhibition of HePTP (unknown origin)

Tyrosine-protein phosphatase non-receptor type 2, sequence (P17706 whole entry): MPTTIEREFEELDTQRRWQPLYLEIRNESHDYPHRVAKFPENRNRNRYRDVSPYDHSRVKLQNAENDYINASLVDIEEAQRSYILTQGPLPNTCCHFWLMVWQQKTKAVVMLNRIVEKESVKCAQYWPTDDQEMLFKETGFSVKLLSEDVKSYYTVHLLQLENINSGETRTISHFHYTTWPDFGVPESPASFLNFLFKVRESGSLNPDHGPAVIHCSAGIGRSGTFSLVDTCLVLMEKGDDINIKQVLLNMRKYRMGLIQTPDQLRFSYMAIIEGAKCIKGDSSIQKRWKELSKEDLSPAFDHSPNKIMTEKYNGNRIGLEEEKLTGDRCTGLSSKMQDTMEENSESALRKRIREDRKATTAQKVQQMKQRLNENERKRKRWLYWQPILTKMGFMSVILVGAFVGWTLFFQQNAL
Tyrosine-protein phosphatase non-receptor type 11, sequence (Q06124 whole entry): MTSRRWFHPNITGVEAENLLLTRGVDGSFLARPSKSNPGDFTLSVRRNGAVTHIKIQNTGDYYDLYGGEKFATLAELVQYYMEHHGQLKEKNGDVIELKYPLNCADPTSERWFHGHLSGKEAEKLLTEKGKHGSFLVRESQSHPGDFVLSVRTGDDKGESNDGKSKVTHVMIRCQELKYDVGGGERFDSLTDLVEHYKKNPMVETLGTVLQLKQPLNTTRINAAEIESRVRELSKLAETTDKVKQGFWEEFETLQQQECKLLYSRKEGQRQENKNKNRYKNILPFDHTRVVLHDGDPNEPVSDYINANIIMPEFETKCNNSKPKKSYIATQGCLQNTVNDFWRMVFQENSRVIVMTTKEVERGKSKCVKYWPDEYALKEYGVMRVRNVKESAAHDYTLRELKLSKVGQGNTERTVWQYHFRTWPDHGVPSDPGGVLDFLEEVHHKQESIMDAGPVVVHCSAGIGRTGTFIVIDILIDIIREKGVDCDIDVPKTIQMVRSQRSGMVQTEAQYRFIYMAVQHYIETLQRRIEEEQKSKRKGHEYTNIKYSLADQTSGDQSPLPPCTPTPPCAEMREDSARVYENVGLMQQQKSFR
Tyrosine-protein phosphatase non-receptor type 13, sequence (Q12923 whole entry, the tested form may be a part): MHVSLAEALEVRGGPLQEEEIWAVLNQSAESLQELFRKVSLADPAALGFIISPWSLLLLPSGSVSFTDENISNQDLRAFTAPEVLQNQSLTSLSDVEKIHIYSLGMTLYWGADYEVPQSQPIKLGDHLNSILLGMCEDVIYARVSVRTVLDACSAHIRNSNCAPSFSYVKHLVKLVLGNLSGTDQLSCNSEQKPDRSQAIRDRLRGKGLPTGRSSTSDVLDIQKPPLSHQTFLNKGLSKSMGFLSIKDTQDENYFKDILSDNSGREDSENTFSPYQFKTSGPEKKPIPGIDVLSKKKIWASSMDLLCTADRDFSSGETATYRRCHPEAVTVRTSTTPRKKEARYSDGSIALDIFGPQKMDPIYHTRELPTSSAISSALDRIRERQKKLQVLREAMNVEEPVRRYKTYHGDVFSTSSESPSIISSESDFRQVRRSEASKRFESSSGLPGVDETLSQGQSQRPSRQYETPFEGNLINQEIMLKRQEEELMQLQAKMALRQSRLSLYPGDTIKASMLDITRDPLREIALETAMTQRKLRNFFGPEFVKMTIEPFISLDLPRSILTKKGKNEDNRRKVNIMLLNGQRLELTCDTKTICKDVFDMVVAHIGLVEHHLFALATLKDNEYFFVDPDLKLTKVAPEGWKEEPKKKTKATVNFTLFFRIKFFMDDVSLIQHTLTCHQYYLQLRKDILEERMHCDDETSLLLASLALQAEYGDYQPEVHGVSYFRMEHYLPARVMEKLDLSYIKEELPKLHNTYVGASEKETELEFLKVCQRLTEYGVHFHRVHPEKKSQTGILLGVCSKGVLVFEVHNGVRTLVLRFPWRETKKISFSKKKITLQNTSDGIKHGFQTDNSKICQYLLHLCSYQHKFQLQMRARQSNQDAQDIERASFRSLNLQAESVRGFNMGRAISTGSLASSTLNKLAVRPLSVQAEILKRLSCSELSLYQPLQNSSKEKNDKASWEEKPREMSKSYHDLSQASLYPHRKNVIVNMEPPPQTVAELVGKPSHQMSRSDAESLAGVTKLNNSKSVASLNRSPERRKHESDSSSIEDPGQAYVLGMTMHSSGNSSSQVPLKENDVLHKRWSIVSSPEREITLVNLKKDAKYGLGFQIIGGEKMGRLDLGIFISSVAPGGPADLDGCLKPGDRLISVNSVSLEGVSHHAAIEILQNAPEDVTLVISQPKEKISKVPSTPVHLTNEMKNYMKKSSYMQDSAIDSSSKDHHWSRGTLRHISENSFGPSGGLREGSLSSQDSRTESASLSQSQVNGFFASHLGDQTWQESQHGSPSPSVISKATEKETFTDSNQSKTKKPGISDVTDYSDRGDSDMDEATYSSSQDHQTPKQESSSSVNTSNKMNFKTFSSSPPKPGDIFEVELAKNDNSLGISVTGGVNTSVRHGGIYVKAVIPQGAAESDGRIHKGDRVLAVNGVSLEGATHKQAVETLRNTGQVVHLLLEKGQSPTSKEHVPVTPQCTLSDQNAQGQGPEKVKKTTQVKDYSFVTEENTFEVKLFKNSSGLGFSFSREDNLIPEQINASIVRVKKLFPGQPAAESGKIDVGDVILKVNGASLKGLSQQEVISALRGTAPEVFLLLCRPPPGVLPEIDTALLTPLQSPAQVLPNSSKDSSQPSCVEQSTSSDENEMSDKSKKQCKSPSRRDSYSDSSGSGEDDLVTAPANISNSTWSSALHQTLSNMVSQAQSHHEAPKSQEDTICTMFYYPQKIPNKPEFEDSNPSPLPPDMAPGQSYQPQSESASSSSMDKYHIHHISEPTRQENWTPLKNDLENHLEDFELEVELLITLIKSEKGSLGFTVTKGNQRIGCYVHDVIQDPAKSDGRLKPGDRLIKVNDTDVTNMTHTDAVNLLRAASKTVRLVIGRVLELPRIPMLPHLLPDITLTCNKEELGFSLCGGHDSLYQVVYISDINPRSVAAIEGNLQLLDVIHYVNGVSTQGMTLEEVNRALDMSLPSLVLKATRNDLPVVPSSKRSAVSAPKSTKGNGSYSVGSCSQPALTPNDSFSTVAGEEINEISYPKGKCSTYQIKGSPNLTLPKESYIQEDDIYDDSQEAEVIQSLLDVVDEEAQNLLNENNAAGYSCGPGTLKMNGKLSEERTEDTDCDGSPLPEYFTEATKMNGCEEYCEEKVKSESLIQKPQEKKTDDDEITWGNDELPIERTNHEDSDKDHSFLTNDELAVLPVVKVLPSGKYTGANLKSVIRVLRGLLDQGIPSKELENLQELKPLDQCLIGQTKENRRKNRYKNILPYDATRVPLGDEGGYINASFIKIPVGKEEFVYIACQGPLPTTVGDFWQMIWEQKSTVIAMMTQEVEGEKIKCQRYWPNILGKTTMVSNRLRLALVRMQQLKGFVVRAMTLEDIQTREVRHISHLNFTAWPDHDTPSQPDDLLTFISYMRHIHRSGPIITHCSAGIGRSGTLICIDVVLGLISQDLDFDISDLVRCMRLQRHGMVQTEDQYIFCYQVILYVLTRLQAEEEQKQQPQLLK
Serine/threonine-protein phosphatase 5, sequence (P53041 whole entry): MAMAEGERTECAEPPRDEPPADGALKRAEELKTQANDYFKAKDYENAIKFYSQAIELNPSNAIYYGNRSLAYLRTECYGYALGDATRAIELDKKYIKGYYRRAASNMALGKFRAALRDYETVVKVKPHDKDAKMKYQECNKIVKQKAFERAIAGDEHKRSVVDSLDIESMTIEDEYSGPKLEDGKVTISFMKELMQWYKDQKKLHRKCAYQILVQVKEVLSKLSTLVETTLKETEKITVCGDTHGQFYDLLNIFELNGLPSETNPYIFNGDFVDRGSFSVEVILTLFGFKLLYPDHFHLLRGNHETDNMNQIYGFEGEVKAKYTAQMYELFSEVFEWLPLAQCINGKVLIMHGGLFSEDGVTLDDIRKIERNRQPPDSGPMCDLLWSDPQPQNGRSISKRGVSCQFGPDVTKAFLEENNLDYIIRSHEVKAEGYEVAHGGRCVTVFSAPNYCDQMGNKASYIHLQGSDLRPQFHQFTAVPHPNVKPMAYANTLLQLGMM
CYP2D6, sequence (P10635 whole entry): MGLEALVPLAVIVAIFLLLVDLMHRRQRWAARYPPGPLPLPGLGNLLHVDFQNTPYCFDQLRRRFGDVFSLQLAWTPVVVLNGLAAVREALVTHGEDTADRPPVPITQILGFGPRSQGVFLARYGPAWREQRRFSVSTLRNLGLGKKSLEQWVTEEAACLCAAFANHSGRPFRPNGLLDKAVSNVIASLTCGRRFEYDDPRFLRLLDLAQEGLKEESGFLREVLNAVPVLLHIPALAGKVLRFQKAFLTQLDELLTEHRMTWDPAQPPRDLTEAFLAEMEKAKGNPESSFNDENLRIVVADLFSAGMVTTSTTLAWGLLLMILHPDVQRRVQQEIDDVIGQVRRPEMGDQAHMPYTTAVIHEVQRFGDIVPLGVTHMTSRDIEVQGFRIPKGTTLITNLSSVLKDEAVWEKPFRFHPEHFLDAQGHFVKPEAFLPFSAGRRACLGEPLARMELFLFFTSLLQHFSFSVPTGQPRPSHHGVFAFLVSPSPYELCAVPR
Dual specificity protein phosphatase 23, sequence (Q9BVJ7 whole entry): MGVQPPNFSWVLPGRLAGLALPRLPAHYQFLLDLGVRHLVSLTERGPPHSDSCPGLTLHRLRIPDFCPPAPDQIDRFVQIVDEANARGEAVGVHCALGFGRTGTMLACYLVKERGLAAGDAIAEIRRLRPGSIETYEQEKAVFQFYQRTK
Dual specificity protein phosphatase 3, sequence (P51452 whole entry): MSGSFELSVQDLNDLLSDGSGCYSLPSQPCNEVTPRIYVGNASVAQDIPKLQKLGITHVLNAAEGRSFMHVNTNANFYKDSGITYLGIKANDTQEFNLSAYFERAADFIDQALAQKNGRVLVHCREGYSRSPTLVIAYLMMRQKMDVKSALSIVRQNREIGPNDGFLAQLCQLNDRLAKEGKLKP
RNA polymerase II subunit A C-terminal domain phosphatase SSU72, sequence (Q9NP77 whole entry, the tested form may be a part): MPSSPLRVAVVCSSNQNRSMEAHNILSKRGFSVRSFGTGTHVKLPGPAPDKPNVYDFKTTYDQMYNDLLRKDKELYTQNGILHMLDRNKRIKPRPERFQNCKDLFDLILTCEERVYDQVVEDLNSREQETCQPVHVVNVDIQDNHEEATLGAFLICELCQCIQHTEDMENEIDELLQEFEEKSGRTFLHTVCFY

Compound Cc1c(Br)cc(NC(=O)NS(=O)(=O)O)cc1Br has a Tmax [1] of 2.7 h, an IC50 [2] greater than 10 µM and an IC50 [3] greater than 10 µM. The IC50 [4] was greater than 10 µM, the AUC [5] was 42.8 µM·h and the IC50 [6] was greater than 10 µM. For the same compound, the IC50 [7] was greater than 10 µM, the inhibition at 0.05 h (CYP2D6) was 2% and the t1/2 [8] was 2.8 h. The AUC [9] was 4.66 µM·h, the t1/2 [10] was 1.41 h and the IC50 [11] was greater than 10 µM. It also gave an AUC [12] of 37.3 µM·h, a t1/2 [13] of 2.4 h and an IC50 [14] greater than 10 µM. For the same compound, the t1/2 [15] was 4.2 h, the IC50 [16] was greater than 10 µM and the fCmax [17] was 21 nM. It also gave an IC50 [18] greater than 10 µM, a Fu [19] of 0.024 and an IC50 [20] greater than 10 µM. For the same compound, the IC50 [21] was greater than 10 µM, the IC50 [22] was 0.003 µM and the IC50 [23] was greater than 10 µM. It also gave an IC50 [24] of 0.003 µM, an IC50 [25] greater than 10 µM and a remaining at 0.5 h, 4 µM [26] of 21%. The IC50 [27] was greater than 10 µM, the inhibition at 10 min (CYP2C9) was 0% and the IC50 [28] was greater than 10 µM. It also gave a Ki [29] of 0.0012 µM, a Cmax [30] of 9.69 µM and a remaining at 0.5 h, 4 µM [31] of 38%. The IC50 [32] was greater than 10 µM, the IC50 [33] was greater than 10 µM and the AUC [34] was 15.1 µM·h. For the same compound, the IC50 [35] was greater than 10 µM and the IC50 [36] was greater than 10 µM.

From ChEMBL document CHEMBL5214960 (J Med Chem, 2022)
